Measured values reported in patent publication US20120077732A1, “CYCLIC PEPTIDES AND USES THEREOF” (SYDNEY WEST AREA HEALTH SERVICE, priority 2008, published 2012).
Converted amounts (≈) assume the structure as drawn. Where two headings read alike, the source gives them in different places.

Key:
[1] = Surface plasmon resonance binding to DMPG liposomes; conditions: SPR, L1 sensor chip, 50 μM, 25° C.
Protocol: (§1) Model membranes composed of zwitterionic and anionic phospholipids were prepared as previously described (Bender et al., 2004). Briefly, DMPC and DMPG were dissolved in dry chloroform and chloroform/methanol (2:1) respectively to give 10 mg/ml solutions. […] The solution was sonicated in an ultrasonic bath for 20 min. Eight cycles of freeze/thawing was followed by extrusion through polycarbonate filters, first 100 nm (21 times) then 50 nm pore diameter (21 times), using a Lipofast apparatus (Avestin, Ottawa, Canada) and SUVs were used immediately. SPR was carried out on a BIAcore 2000 instrument using Pioneer Sensor Chip L1 and HEPES (HBS-N, Biacore, Upssala, Sweden) as running buffer. The chip surface was cleaned with 40 mM octyl glycoside (30 μl, 10 μl/min) followed liposomes (SUV) (100 μl, 5 μl/min). 10 mM NaOH (40 μl, 10 μl/min) removed any multilamellar vesicles from the surface before injecting the lipopeptide solutions (100 μl, 5 μl/min). The dissociation stage was 1200 sec. […] All SPR experiments were run at 25° C. and all analyses were performed using the BIAevaluation software (Biacore, Uppsala, Sweden). Lipopeptide binding was expressed as the difference in signal between points before sample injection and after dissociation.

Wistar rats = assay: Adjuvant-induced arthritis model; format: in vivo; conditions: given subcutaneously, four daily injections of 6 mg at onset of arthritis
[2] = system: allergic mice (OVA model); format: in vivo; conditions: 200 μg subcutaneous; compared to historical OVA/OVA mice
Protocol: The effect on the inflammatory response of the 200 μg dose and subcutaneous route of administration of cyclic C1 peptide determined in Example 8 was tested with the OVA (ovalbumin) model (Temelkovski, et al. (1998); Foster, et al. (2000); Asquith et al (2008)) according to the following study design. At the endpoint mice were euthanased and BALF was obtained by cannulating the trachea and flushing the airways with two 0.8 ml volumes of Hank's Balanced Salt Solution (HBSS). Recovered cells were treated with erythrocyte lysis buffer, cytospins prepared and stained with May-Grunwald Giemsa and differential leukocyte counts performed based on morphological criteria (min 200 cells counted/slide). Statistical analysis was performed using a student's unpaired t-test. Results were compared to historical data.

2B4.11 hybridoma = assay: Antigen presentation assay (IL-2 produced in response to antigen); format: cell-based; conditions: for IL2 %: 50 μM, relative to DMSO control (100%); for IL-2 production, % of the solvent only control value: 0.5% DMSO, ±SD
2B4.11 cells [3] = assay: T-cell activation with H57-597 antibody (TCRβ chain crosslinking), IL-2 production; format: cell-based; conditions: H57-597 0.5 μg/mL with LK cells; 50 μM; relative to DMSO control; ±SD
Protocol: To analyse the mode of action of C1, T-cells were activated using 2C11-145 and H57-597 antibodies. The H57-597 antibody is directed against the TCRβ chain, and when administered at sub-optimal doses in conjunction with accessory cells (LK35.2), is capable of activating T cells. […] C1 was added to give a final reaction volume of 250 μL at 50 μM and 0.5% DMSO.

trypsin = format: in vitro ADME
Protocol: The effect of trypsin on C1 and CP was studied by incubating each peptide (1 μg/μl) in methanol and ammonium bicarbonate (0.1M) with 125 ng/μl of trypsin at pH 8 and 37° C. The effect of trypsin after incubation with CP and C1 was followed by mass spectrometry. […]

2B4.11 cells [4] = format: cell-based; conditions: 50 μM
NOD mice = assay: Treatment of NOD mice, blood glucose level / diabetes; format: in vivo; conditions: i.p. injections of 0.1 mg
Protocol: NOD mice were fasted for at least 1.5 h prior to blood glucose level (BGL) measurements. In the morning, all mice were treated with intraperitoneal (i.p.) injections of 0.1 mg C1 and BGLs were taken. Control mice received 0.2 mL of water.

S. pneumoniae = assay: Standard disk susceptibility testing (NCCLS), S. pneumoniae; format: cell-based
Protocol: (§2) The synthetic C1 peptide and its analogues were tested using Standard disk susceptibility testing by National Committee for […] Laboratory Standards (NCCLS) against, S. aureus, E. coli and S. pneumoniae. […]

[5] = Surface plasmon resonance binding to DMPC liposomes; conditions: SPR
Protocol: as §1

allergic mice (OVA/OVA) = assay: Allergic airways disease (OVA) model: local and systemic OVA-specific cytokine production; format: in vivo; set-up: key to Spleen OVA-stimulated IL-5 / Spleen OVA-stimulated IL-13 / LN OVA-stimulated IL-5 / LNOVA stimulated IL-13: nc: no change; ↑: increase; ↓: decrease
E. coli = assay: Standard disk susceptibility testing (NCCLS), E. coli; format: cell-based
Protocol: as §2

S. aureus = format: cell-based
Protocol: as §2

2B4 cells = assay: T-cell activation with PMA and ionomycin, IL-2 production; conditions: PMA 40 ng/mL + ionomycin 5 μg/mL; 50 μM; ±SD
Protocol: Further, T-cells were activated using PMA and ionomycin stimulation. The method employed to activate T cells utilized the protein kinase C activating PMA in combination with the calcium ionophore, ionomycin. In combination, PMA/ionomycin effectively activate T cells downstream from the TCR. Phorbol 12-myristate 13-acetate (PMA) (40 ng/mL) and ionomycin (5 μg/mL) were added to 2B4 cells (5×10^4) and incubated with each CP-conjugate at 50 μM in 0.5% DMSO in 96-well, round bottom microtiter plates for 24 h at 37° C. with 5% CO2 in a total volume of 250 μL. Supernatants were then collected and analysed for IL-2 production. All CP-conjugates were tested simultaneously in triplicate wells, and each experiment was performed on three separate occasions.

[6] = format: physicochemical
Protocol: pH stability was also investigated. C1 (2 μg/μl) was incubated at 30° C. for three days at pH 3, 7 and 10. Samples were taken after each day and analysed by mass spectrometry.

[7] = 200 μg s.c. during challenge, allergic mice
[8] = 200 μg/100 μl s.c. during OVA challenge, compared to OVA/OVA alone

Q: With `CC(C)C[C@@H]1NC(=O)[C@@H](CC(C)C)NC(=O)[C@H](CCCNC(=N)N)NC(=O)[C@@H](CC(C)C)NC(=O)CNC(=O)[C@@H](C(C)C)NC(=O)[C@H](CCCCN)NC(=O)[C@@H](CC(C)C)NC(=O)[C@H](CC(C)C)NC(=O)[C@@H](CC(C)C)NC1=O` [C1, LDRLDLLDLLDKVDG] as the compound, how does the “binding to DMPG (anionic) liposomes” value [1] read?
A: bound much stronger

Q: What about the “effect in reducing inflammation (total foot swelling)” value (Wistar rats) of the same compound?
A: comparable effect to cyclosporin

Q: And the “eosinophils in BALF” value [2]?
A: decrease

Q: And the “macrophages in BALF” value [2]?
A: significant reduction

Q: What about the “total inflammatory cells in BALF” value [2] of the same compound?
A: reduction

Q: What about the “% Ave IL2 Production” value (2B4.11 hybridoma; average, Tables 1-3) of the same compound?
A: 17%

Q: And the IL2 % (2B4.11 hybridoma; fifth IL2 column (individual experiment in triplicate))?
A: 15.6%

Q: And the IL2 % (2B4.11 hybridoma; fourth IL2 column (individual experiment in triplicate))?
A: 18.9%

Q: And the “IL-2 production, % of the solvent only control value” (2B4.11 hybridoma; peptide 25 μM)?
A: 59.69%±23.54

Q: What about the “IL-2 production, % of the solvent only control value” (2B4.11 hybridoma; peptide 50 μM) of the same compound?
A: 7.73%±4.97

Q: And the IL-2 production (2B4.11 cells [3])?
A: 54.02%+/−9.32

Q: What about the “stability without trypsin, 3 hours (Mass spectroscopy-MS)” value (trypsin) of the same compound?
A: No degradation product

Q: And the “stability without trypsin, 24 hours (MS)” value (trypsin)?
A: No degradation product

Q: What about the IL-2 production (2B4.11 cells [4]) of the same compound?
A: 71.42%+/−14.275D

Q: What about the “blood glucose level control versus control group” value (NOD mice) of the same compound?
A: more tightly controlled

Q: And the “mice that developed diabetes (BGL higher than 15 mM on two consecutive days)” value (NOD mice; preliminary results, control 7/21)?
A: 2/7

Q: And the “antimicrobial activity, S. pneumoniae” value (S. pneumoniae; peptide 10 μg/ml)?
A: −ve

Q: What about the “antimicrobial activity, S. pneumoniae” value (S. pneumoniae; peptide 100 μg/ml) of the same compound?
A: −ve

Q: And the “antimicrobial activity, S. pneumoniae” value (S. pneumoniae; peptide 1000 μg/ml)?
A: −ve

Q: What about the “binding affinity to DMPC model membrane relative to CP” value [5] of the same compound?
A: approximately 10 fold

Q: And the “binding to DMPC (zwitterionic) liposomes” value ([5]; L1 sensor chip, 50 μM, 25° C.)?
A: bound much stronger

Q: And the “binding relative to all the other analogues examined (with the exception of C2)” value ([5]; model membranes)?
A: > 10 fold

Q: And the “locally produced (peribronchial lymph node derived) IL-5” value (allergic mice (OVA/OVA); [7])?
A: significant decrease

Q: And the “locally produced (peribronchial lymph node derived) IL-13” value (allergic mice (OVA/OVA); [7])?
A: significant decrease

Q: And the “systemic (spleen derived) IL-5” value (allergic mice (OVA/OVA); [7])?
A: significant decrease

Q: What about the “systemic (spleen derived) IL-13” value (allergic mice (OVA/OVA); [7]) of the same compound?
A: significant decrease

Q: And the “LN OVA-stimulated IL-5” value (allergic mice (OVA/OVA); [8])?
A: ↓

Q: And the “LNOVA stimulated IL-13” value (allergic mice (OVA/OVA); [8])?
A: ↓

Q: What about the “Spleen OVA-stimulated IL-5” value (allergic mice (OVA/OVA); [8]) of the same compound?
A: ↓

Q: And the “Spleen OVA-stimulated IL-13” value (allergic mice (OVA/OVA); [8])?
A: ↓

Q: And the “antimicrobial activity, E. coli” value (E. coli; peptide 10 μg/ml)?
A: −ve

Q: And the “antimicrobial activity, E. coli” value (E. coli; peptide 100 μg/ml)?
A: −ve

Q: What about the “antimicrobial activity, E. coli” value (E. coli; peptide 1000 μg/ml) of the same compound?
A: −ve

Q: What about the “MIC against S. aureus” value (S. aureus) of the same compound?
A: 100 µg/mL (≈ 89.3 µM)

Q: And the “antimicrobial activity, S. aureus” value (S. aureus; peptide 10 μg/ml)?
A: −ve

Q: What about the “antimicrobial activity, S. aureus” value (S. aureus; peptide 100 μg/ml) of the same compound?
A: +ve

Q: And the “antimicrobial activity, S. aureus” value (S. aureus; peptide 1000 μg/ml)?
A: +ve

Q: And the “IL-2 production relative to the DMSO control” value (2B4 cells)?
A: 62.83%+/−17.60

Q: What about the “pH range over which stable” value [6] of the same compound?
A: 1-11 pH
